Assay results: ChEMBL document CHEMBL5512626, “Discovery of potent small molecule inhibitors of histone lysine methyltransferase NSDs” (Eur J Med Chem, 2024); call rule not given here

Legend:
[1] = target: T1, Histone-lysine N-methyltransferase NSD3 (Homo sapiens, UniProt Q9BZ95); experiment: Inhibition of recombinant NSD3 (1021 to 1322 residues) (unknown origin) expressed in Escherichia coli Rossetta (DE3)
T1 sequence (Q9BZ95 whole entry): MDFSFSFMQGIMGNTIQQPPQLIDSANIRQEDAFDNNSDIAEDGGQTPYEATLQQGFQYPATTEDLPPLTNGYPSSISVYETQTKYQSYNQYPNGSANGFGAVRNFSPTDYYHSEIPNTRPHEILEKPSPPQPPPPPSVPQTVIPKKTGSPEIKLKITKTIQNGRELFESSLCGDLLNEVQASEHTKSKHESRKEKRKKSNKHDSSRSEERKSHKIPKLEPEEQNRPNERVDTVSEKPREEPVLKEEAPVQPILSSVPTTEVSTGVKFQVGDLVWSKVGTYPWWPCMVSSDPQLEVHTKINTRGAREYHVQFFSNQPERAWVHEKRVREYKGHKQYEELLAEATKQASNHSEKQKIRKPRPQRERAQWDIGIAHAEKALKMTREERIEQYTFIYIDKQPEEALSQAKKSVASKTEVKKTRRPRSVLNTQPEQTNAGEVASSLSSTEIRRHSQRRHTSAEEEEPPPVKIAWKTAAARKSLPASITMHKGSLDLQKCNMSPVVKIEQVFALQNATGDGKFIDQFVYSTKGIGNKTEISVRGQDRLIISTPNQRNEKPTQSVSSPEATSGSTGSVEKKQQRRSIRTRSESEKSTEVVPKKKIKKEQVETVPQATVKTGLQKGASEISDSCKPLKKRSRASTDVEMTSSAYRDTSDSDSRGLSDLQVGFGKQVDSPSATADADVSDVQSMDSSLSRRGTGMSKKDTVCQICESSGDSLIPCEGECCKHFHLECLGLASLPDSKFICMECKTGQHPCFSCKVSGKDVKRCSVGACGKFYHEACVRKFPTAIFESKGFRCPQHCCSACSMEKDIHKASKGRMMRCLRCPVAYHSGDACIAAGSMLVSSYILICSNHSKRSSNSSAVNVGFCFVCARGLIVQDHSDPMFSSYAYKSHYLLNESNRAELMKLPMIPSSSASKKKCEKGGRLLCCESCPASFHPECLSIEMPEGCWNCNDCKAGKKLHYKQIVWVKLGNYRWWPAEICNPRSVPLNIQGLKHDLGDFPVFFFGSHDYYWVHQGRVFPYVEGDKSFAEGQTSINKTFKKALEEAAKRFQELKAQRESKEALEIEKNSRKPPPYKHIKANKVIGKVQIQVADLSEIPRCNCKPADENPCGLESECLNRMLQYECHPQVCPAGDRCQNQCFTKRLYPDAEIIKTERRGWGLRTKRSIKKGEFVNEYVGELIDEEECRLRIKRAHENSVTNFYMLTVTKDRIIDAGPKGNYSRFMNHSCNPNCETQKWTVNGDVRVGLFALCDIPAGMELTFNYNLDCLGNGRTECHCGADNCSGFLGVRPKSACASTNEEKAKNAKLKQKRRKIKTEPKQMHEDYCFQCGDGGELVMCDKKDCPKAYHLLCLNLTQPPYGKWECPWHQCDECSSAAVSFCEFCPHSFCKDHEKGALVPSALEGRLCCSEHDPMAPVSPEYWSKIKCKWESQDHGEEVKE

[2] = Inhibition of cell proliferation of rat RN 22 cells incubated for 6 days by Real-time Glow MT assay; assay type: functional, cell-based; details: RN 22, 144 h
[3] = target: T1, Histone-lysine N-methyltransferase NSD3; experiment: Inhibition of recombinant NSD3 (1021 to 1322 residues) (unknown origin) expressed in Escherichia coli Rossetta (DE3) using H3K36me1 as substrate incubated for 20 mins in presence of SAM by HTRF assay
[4] = target: T2, Histone-lysine N-methyltransferase NSD2 (Homo sapiens, UniProt O96028); experiment: Inhibition of recombinant NSD2 (942 to 1240 residues) (unknown origin) expressed in Escherichia coli Rossetta (DE3) using H3K36me1 as substrate incubated for 20 mins in presence of SAM by HTRF assay
T2 sequence (O96028 whole entry): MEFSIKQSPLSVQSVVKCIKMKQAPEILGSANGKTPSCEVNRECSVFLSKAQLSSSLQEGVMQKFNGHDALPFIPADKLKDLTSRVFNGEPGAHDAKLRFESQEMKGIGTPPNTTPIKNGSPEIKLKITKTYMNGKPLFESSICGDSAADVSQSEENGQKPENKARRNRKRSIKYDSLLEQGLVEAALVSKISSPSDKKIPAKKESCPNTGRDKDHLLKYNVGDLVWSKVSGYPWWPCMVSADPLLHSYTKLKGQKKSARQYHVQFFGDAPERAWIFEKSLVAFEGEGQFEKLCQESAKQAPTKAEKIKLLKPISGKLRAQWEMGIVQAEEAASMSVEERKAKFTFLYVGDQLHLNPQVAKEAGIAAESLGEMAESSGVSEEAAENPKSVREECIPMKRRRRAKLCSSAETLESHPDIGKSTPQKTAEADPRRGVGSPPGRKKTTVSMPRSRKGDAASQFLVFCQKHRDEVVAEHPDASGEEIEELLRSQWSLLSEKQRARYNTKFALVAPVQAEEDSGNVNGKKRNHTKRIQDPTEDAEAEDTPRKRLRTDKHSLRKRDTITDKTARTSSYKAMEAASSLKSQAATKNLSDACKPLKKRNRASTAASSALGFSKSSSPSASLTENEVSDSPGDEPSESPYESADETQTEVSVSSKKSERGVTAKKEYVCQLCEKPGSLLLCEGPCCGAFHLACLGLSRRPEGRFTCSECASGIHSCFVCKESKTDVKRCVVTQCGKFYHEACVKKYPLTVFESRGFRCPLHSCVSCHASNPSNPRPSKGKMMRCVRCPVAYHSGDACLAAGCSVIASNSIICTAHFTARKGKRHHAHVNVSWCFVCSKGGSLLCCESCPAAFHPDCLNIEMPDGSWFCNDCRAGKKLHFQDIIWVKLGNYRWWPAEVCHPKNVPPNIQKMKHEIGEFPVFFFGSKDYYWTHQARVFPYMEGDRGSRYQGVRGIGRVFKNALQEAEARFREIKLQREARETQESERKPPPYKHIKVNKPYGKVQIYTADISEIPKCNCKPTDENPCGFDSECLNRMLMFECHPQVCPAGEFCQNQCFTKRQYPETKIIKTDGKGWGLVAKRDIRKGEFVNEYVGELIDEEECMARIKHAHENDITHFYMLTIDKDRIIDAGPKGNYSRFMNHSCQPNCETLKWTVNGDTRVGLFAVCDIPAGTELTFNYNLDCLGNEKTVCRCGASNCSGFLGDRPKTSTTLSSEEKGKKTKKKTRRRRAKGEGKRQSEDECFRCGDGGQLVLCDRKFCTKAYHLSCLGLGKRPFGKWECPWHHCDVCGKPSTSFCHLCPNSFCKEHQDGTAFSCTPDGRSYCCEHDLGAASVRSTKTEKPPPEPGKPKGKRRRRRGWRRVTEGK

| Compound | IC50 [1] | IC50 [3] | further results |
| --- | --- | --- | --- |
| CC(C)Oc1ccc(OCCn2c(S)nc3c(N)ncnc32)cc1 | 13.8 µM | – | – |
| Cc1ccc(OCCn2c(S)nc3c(N)ncnc32)cc1 | 14.3 µM | – | – |
| CCOc1ccc(OCCn2c(S)nc3c(N)ncnc32)cc1 | 32.2 µM | – | – |
| Cc1cc(CN)cc(C)c1-c1ncn(C)c1-c1ccnc2cc(F)ccc12 | – | – | IC50 [2]: 13 µM |
| CC(=O)Nc1ccc(OCCn2cnc3c(N)ncnc32)cc1 | – | Not Active | – |
| N#Cc1ccccc1OCCn1cnc2c(N)ncnc21 | – | Not Active | – |
| Nc1ccc(OCCn2cnc3c(N)ncnc32)cc1 | – | Not Active | – |
| CSc1nc2c(N)ncnc2n1CCOc1ccc(C#N)cc1 | – | Not Active | IC50 [4]: Not Active |
| Nc1ncnc2c1ncn2CCOc1ccccc1Cl | – | Not Active | – |
| N#Cc1ccc(OCCn2c(Br)nc3c(N)ncnc32)cc1 | – | Not Active | – |
